According to patent publication US11396509B2, “Solid forms of a toll-like receptor modulator” (Gilead Sciences, Inc., priority 2019, dated 2022):

Test: Dynamic vapor sorption (moisture sorption/desorption)
Format: physicochemical
Conditions: for change of solid form post dynamic vapor sorption experiment: after DVS experiment up to 95% RH at 25° C.; for water absorbed (dynamic vapor sorption): up to 95% RH at 25° C.
Procedure: Moisture sorption/desorption data were collected on a VTI SGA-100 Vapor Sorption Analyzer. NaCl and PVP were used as calibration standards. Samples were not dried prior to analysis. Sorption and desorption data were collected over a range from 5% to 95% RH at 10% RH increments under a nitrogen purge. The equilibrium criterion used for analysis was less than 0.0100% weight change in 5 minutes with a maximum equilibration time of 3 hours. Weight percentages reported in the data section are relative to the total sample mass introduced prior to equilibration at 5% RH as measured on the instrument.

change of solid form post dynamic vapor sorption experiment	water absorbed (dynamic vapor sorption)	SMILES
not have changed forms	about 0.68%	CCCC[C@](C)(CO)Nc1nc(N)nc2cc(F)cnc12 [Compound I Hippuric Acid, (R)-2-((2-amino-7-fluoropyrido[3,2-d]pyrimidin-4-yl)amino)-2-methylhexan-1-ol hippuric acid]
not have changed forms	about 1.1%	CCCC[C@](C)(CO)Nc1nc(N)nc2cc(F)cnc12 [Compound I Gentisic Acid, (R)-2-((2-amino-7-fluoropyrido[3,2-d]pyrimidin-4-yl)amino)-2-methylhexan-1-ol gentisic acid]
not have changed forms	about 1.2%	CCCC[C@](C)(CO)Nc1nc(N)nc2cc(F)cnc12.O=C(O)CCC(=O)O [Compound I Succinic Acid, (R)-2-((2-amino-7-fluoropyrido[3,2-d]pyrimidin-4-yl)amino)-2-methylhexan-1-ol succinic acid]
